Test results as given in patent publication US20030153056A1, “Glycosyltransferase proteins” (priority 2000, published 2003).

Tests used:
[1] = molecular target: T1, Brainiac β1-3-N-acetylglucosaminyltransferase (Drosophila melanogaster, UniProt Q24157); experiment: Substrate specificities of Brainiac β1-3-N-acetylglucosaminyltransferase (acceptor panel, microsomal preparations); format: biochemical; conditions: panel of mono- and disaccharides with aglycons and oligosaccharides
T1 construct: The full coding region of Brainiac was prepared by PCR using genomic DNA; made in house; host or cells: High Five insect cells (baculovirus vector pVL1393); microsomal fractions
T1 sequence (Q24157 1-325): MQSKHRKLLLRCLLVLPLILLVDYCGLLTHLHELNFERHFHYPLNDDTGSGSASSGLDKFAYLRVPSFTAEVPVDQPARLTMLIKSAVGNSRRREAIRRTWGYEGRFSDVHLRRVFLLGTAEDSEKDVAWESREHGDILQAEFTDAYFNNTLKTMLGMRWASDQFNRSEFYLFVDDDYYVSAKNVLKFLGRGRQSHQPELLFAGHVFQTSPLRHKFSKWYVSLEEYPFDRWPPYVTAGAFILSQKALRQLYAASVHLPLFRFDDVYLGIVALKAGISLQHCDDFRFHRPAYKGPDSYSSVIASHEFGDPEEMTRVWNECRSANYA
Procedure: Fringe-Myc and Fringe-NNN-myc were cloned into baculovirus vector pVL1393 (Pharmingen) and expressed in High Five™ cells. Microsomal fractions were prepared by hypotonic lysis ultracentrifugation and solubilised 1:2 (vol/vol) in 20 mM Cacodylate pH 6.5, 1% Triton-CF54, 5 MM MnCl2 containing Leupeptin and Aprotinin as described previously (Amado et al., 1998). For glycosyltransferase assays, 5 μl of this suspension were added to a total of 50 μl reaction mixture containing 25 mM Cacodylate pH 6.5, 0.25% Triton-CF54, 5 mM MnCl2, 500 mM free sugar, 100 μM UDP-^14C-sugar (1280-2000 cpm/nmol). Reactions were incubated at 37° C. for 45-60 minutes, followed by Dowex-1 anion exchange chromatography and scintillation counting of 50% of the flow-through.
Brainiac-full was cloned into baculovirus vector pVL1393 (Pharmingen) and expressed in High Five cells. […] Initial analysis of activity was done with five monosaccharides and four donor sugar nucleotides as described in FIG. 5 for Fringe. Assays with the acceptors listed in Table 1 were performed as described for Fringe except no additional detergent was added. Reactions with glycolipid substrates were performed in the presence of 0.5% N-octylglucoside in 50 ul reaction volume containing 10 μg glycolipid.
In the latter case the acceptor sugar was not determined.

[2] = molecular target: T1, Brainiac β1-3-N-acetylglucosaminyltransferase; experiment: as above; format: biochemical; conditions: microsomes of pVL-Brainiac infected High Five cells, background of irrelevant construct subtracted, donor UDP-GlcNAc

Acceptor for Brainiac, in words (detailed analysis) [1]: not found to be acceptors
Brainiac activity with substrate ([2]; substrate 2 mM): 0.00 nmol/h/mg
Brainiac activity with substrate ([2]; substrate 20 mM): 0.00 nmol/h/mg
Compound: OC[C@H]1OC(O)[C@H](O)[C@@H](O)[C@H]1O (stereo partly drawn) [D-Gal]
